Data reported in article PMC5011342, “A high throughput drug screening assay to identify compounds that promote oligodendrocyte differentiation using acutely dissociated and purified oligodendrocyte precursor cells” (BMC Research Notes, 2016).
Where two headings read alike, the source gives them in different places.

What was measured:
[1] = tested on: acutely dissociated and purified rat OPCs; assay: Acute OL differentiation assay (MBP expression/cell, immunofluorescent image quantification); assay type: cell-based
How it was run: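 Oligodendrocyte precursor cells were enriched from P6-P7 Sprague–Dawley rat brains by immunopanning (RAN-2 and GalC depletion, O4 selection), plated at 5000 cells/well in serum-free, mitogen-free differentiation media on PDL/laminin 96-well view plates, centrifuged at 200×g, and pre-incubated 1–2 h before test compounds were added in quadruplicate. On DIV4, cells were fixed, stained for MBP and DAPI, imaged automatically, and MBP expression per cell was quantified.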

expanded OPCs = assay: cells; settings: for viability at 0.1 µM / viability at 1 µM / viability at 10 µM: Rattus norvegicus, 72 h; for 0.1 µM (% DMSO) / 1 µM (% DMSO) / 10 µM (% DMSO): alamarBlue viability of expanded OPCs, relative to DMSO control; for 0.1 µM (% DMSO): compound at 0.1 µM; for 1 µM (% DMSO): compound at 1 µM; for 10 µM (% DMSO): compound at 10 µM
How it was run: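 Expanded OPCs seeded at 10,000 cells/well in differentiation media, then exposed to NCC library compounds at 10, 1 and 0.1 µM (quadruplicate, 0.1% DMSO) for three days. Viability read as alamarBlue fluorescence (560/590 nm) after 4 h at 37 °C; tunicamycin 5 ng/ml served as toxicity control.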

[2] = Rattus norvegicus, test compound at 0.4 uM, NCC library screen, sheet "All OLga data", relative to quetiapine, read-out: 0.4 uM (% Quet)
[3] = read-out: 0.1 µM (% DMSO), alamarBlue viability, NCC library compound at 0.1 µM, sheet "All Tox data"
[4] = read-out: 1 µM (% DMSO), alamarBlue viability, NCC library compound at 1 µM, sheet "All Tox data"
[5] = read-out: 10 µM (% DMSO), alamarBlue viability, NCC library compound at 10 µM, sheet "All Tox data"
[6] = Rattus norvegicus, test compound at 2 uM, MBP expression relative to quetiapine, NCC library screen, sheet "All OLga data", read-out: 2 uM (% Quet)
[7] = Rattus norvegicus, test compound at 10 uM, MBP expression relative to quetiapine, NCC library screen, sheet "All OLga data", read-out: 10 uM (% Quet)
[8] = Rattus norvegicus, 2 uM test compound, relative to quetiapine, sheet "All OLga data", read-out: OL differentiation, 2 uM (% Quet)
[9] = Rattus norvegicus, 10 uM test compound, relative to quetiapine, sheet "All OLga data", read-out: OL differentiation, 10 uM (% Quet)
[10] = read-out: 0.1 µM (% DMSO), alamarBlue viability of expanded OPCs, compound at 0.1 µM, sheet All Tox data
[11] = read-out: 1 µM (% DMSO), alamarBlue viability of expanded OPCs, compound at 1 µM, sheet All Tox data
[12] = read-out: 10 µM (% DMSO), alamarBlue viability of expanded OPCs, compound at 10 µM, sheet All Tox data
[13] = Rattus norvegicus, test compound at 2 uM, NCC library screen, sheet "All OLga data", relative to quetiapine, read-out: 2 uM (% Quet)
[14] = Rattus norvegicus, test compound at 10 uM, NCC library screen, sheet "All OLga data", relative to quetiapine, read-out: 10 uM (% Quet)
[15] = Rattus norvegicus, 0.4 uM test compound, relative to quetiapine, sheet "All OLga data", read-out: OL differentiation, 0.4 uM (% Quet)

SMILES | viability at 0.1 µM (expanded OPCs; [3]) [%] | viability at 1 µM (expanded OPCs; [4]) [%] | viability at 10 µM (expanded OPCs; [5]) [%] | activation at 2 µM [1, 8] [%] | activation at 10 µM [1, 9] [%] | viability at 0.1 µM (expanded OPCs; [10]) [%] | viability at 1 µM (expanded OPCs; [11]) [%] | viability at 10 µM (expanded OPCs; [12]) [%] | activation at 2 µM [1, 13] [%] | activation at 10 µM [1, 14] [%] | further results
CN1CCC(=C2c3ccccc3C=Cc3ccccc32)CC1 [Cyproheptadine] | 71.2 | 49.3 | 25.2 | – | – | – | – | – | – | – | activation at 0.08 µM ([1]; Rattus norvegicus, test compound at 0.08 uM, NCC library screen, sheet "All OLga data", relative to quetiapine, read-out: 0.08 uM (% Quet)): -0.6%; activation at 0.4 µM [1, 2]: 10.3%
CCOC(=O)[C@H](CCc1ccccc1)N[C@@H](C)C(=O)N1CCC[C@H]1C(=O)O [Enalapril] | – | – | – | – | – | – | – | – | – | – | activation at 2 µM [1, 6]: 8.8%; activation at 10 µM [1, 7]: -8.9%; 0.1 µM (% DMSO) (expanded OPCs): 90.6 % DMSO; 1 µM (% DMSO) (expanded OPCs): 90.6 % DMSO; 10 µM (% DMSO) (expanded OPCs): 87.6 % DMSO
Cc1cccc(CN2CCN(C(c3ccccc3)c3ccc(Cl)cc3)CC2)c1 (centres unmarked) [Meclizine] | – | – | – | – | – | – | – | – | – | – | activation at 0.4 µM ([1]; Rattus norvegicus, test compound at 0.4 uM, MBP expression relative to quetiapine, NCC library screen, sheet "All OLga data", read-out: 0.4 uM (% Quet)): 96.7%; 0.1 µM (% DMSO) (expanded OPCs): 143.0 % DMSO; 1 µM (% DMSO) (expanded OPCs): 107.8 % DMSO; 10 µM (% DMSO) (expanded OPCs): 9.1 % DMSO
COc1cc(-c2ccc(=O)[nH]n2)ccc1OC(F)F [Zardaverine] | – | – | – | 4.1 | -36.7 | 86.5 | 93.5 | 67.4 | – | – | –
O=C1CC2(CCCC2)CC(=O)N1CCNCC1COc2ccccc2O1 (centres unmarked) [Binospirone] | 96 | 97.6 | 97.4 | – | – | – | – | – | 37.7 | 14.1 | –
C#C[C@]1(O)CC[C@H]2[C@@H]3[C@H](C)CC4=C(CCC(=O)C4)[C@H]3CC[C@@]21C [Tibolone] | 84.8 | 85.4 | 77.4 | – | – | – | – | – | 6.5 | -6.7 | –
CN(C)[C@@H]1C(O)=C(C(N)=O)C(=O)[C@@]2(O)C(O)=C3C(=O)c4c(O)cccc4[C@@](C)(O)[C@H]3[C@H](O)[C@@H]12 [Oxytetracycline] | – | – | – | – | – | – | – | – | – | – | activation at 2 µM [1, 6]: -42.7%; activation at 10 µM [1, 7]: -36.7%; 0.1 µM (% DMSO) (expanded OPCs): 98.0 % DMSO; 1 µM (% DMSO) (expanded OPCs): 97.7 % DMSO; 10 µM (% DMSO) (expanded OPCs): 93.6 % DMSO
COc1ccc(C(CN(C)C)C2(O)CCCCC2)cc1 (centres unmarked) [Venlafaxine] | – | – | – | 4 | -26 | 89.1 | 85.2 | 76.7 | – | – | –
CN(Cc1cnc2nc(N)nc(N)c2n1)c1ccc(C(=O)N[C@@H](CCC(=O)O)C(=O)O)cc1 [Methotrexate] | – | – | – | 4.9 | – | 77.9 | 68.5 | 52.8 | – | – | activation at 0.4 µM [1, 15]: -11%
CN1CCN(CCCN2c3ccccc3Sc3ccc(Cl)cc32)CC1 [Prochlorperazine, reference compound] | – | – | – | -12.5 | – | 122 | 107 | 12.6 | – | – | activation at 0.4 µM [1, 15]: 110%; hit in OL differentiation assay, MRF-TMC ([1]; ● = confirmed hit in this paper's assay): ●
C[C@@H](O)[C@H]1C(=O)N2C(C(=O)O)=C(S[C@@H]3CN[C@H](C(=O)N(C)C)C3)[C@H](C)[C@H]12 [Meropenem] | – | – | – | -4.2 | 2.8 | 95.8 | 98.1 | 102 | – | – | –
C/C=C1\[C@H]2C=C(C)C[C@]1(N)c1ccc(=O)[nH]c1C2 [Huperzine A] | 94.2 | 90 | 93.8 | – | – | – | – | – | -19.5 | -60.7 | –
O=C(O)c1cc(/N=N/c2ccc(S(=O)(=O)Nc3ccccn3)cc2)ccc1O [Sulfasalazine] | – | – | – | 15.1 | -0.6 | 89 | 89.8 | 94.9 | – | – | –
CC(CCc1ccccc1)NCC(O)c1ccc(O)c(C(N)=O)c1 (centres unmarked) [Labetalol] | 92.7 | 79.2 | 47.3 | – | – | – | – | – | -15.3 | – | activation at 0.4 µM [1, 2]: -5.2%
CC(=O)OCC(=O)NCCCOc1cccc(CN2CCCCC2)c1 [Roxatidine acetate] | 101 | 96 | 85.7 | -1.7 | 8.2 | – | – | – | – | – | –
CC(=O)CCCCn1c(=O)c2c(ncn2C)n(C)c1=O [Pentoxifylline] | 92.8 | 93.6 | 94.9 | 12.2 | -23.3 | 107 | 101 | 98 | 16.8 | 7.2 | –
c1ccc2c(c1)CCCC2C1=NCCN1 (centres unmarked) [Tyzine] | – | – | – | – | – | – | – | – | -6 | 0.3 | 0.1 µM (% DMSO) (expanded OPCs): 181.2 % DMSO; 1 µM (% DMSO) (expanded OPCs): 186.3 % DMSO; 10 µM (% DMSO) (expanded OPCs): 187.5 % DMSO
C[C@@H]1C[C@H]2[C@@H]3CCC4=CC(=O)C=C[C@]4(C)[C@@]3(F)[C@@H](O)C[C@]2(C)[C@H]1C(=O)CO [Desoximetasone] | 111 | 114 | 111 | – | – | – | – | – | -17.9 | -33 | –
CC1(C)S[C@@H]2[C@H](/N=C/N3CCCCCC3)C(=O)N2[C@H]1C(=O)O [Amdinocillin] | – | – | – | -15.6 | 5.8 | 89.7 | 98.8 | 102 | – | – | –
CCN(CC)CC1CCCCN1CC(=O)N1c2ccccc2C(=O)Nc2cccnc21 (centres unmarked) [Otenzepad] | 91.2 | 81.4 | 75.7 | – | – | – | – | – | 11.2 | 13.5 | –
CC1(C)S[C@@H]2[C@H](NC(=O)Cc3ccccc3)C(=O)N2[C@H]1C(=O)O [Penicillin G] | 107 | 102 | 114 | – | – | – | – | – | -9.8 | 1.4 | –
N[C@@H]1CON=C1O [Cycloserine] | – | – | – | 4.1 | 13.9 | 82.2 | 87 | 97.4 | – | – | activation at 2 µM [1, 6]: -13.8%; activation at 10 µM [1, 7]: -23%; 0.1 µM (% DMSO) (expanded OPCs): 89.7 % DMSO; 1 µM (% DMSO) (expanded OPCs): 97.0 % DMSO; 10 µM (% DMSO) (expanded OPCs): 89.5 % DMSO
CC(Oc1c(Cl)cccc1Cl)C1=NCCN1 (centres unmarked) [lofexidine] | 88.5 | 96 | 80.6 | – | – | – | – | – | 9.5 | 13.1 | –
